Test results from US7612104B2, “Bicyclic aryl-sulfonic acid [1,3,4]-thiadiazol-2-yl-amides, processes for their preparation, pharmaceutical compositions and methods for their use” (Sanofi-Aventis, priority 2005, dated 2009).
pEC50: −log10 of the molar value.

biological target: T1, human PPARgamma (Homo sapiens, UniProt P37231); test: Cellular PPARgamma assay (transiently transfected HEK cells, luciferase reporter); assay type: cell-based; settings: HEK cells transiently transfected with GAL4-humanPPARgammaLBD
T1 construct: amino acids I152-Y475; expressed in transfected cells; host or cells: HEK cells, transiently transfected (pcDNA3-GAL4-humanPPARgammaLBD)
T1 sequence (P37231 182-477 isoform P37231-2 limits assumed): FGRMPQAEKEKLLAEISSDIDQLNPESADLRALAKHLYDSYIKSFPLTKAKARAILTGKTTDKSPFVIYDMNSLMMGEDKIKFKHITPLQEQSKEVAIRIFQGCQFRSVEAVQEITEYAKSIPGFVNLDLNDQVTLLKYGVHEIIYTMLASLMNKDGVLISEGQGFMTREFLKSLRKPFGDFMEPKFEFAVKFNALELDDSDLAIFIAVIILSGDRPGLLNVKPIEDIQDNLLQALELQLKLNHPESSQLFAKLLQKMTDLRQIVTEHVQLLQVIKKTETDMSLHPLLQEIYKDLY
From the text: A transient transfection system is employed to determine the cellular PPARgamma activity of PPAR agonists. It is based on the use of a luciferase reporter plasmid (pGL3basic-5xGAL4-TK) and of a PPARgamma expression plasmid (pcDNA3-GAL4-humanPPARgammaLBD). Both plasmids are transiently transfected into human embryonic kidney cells (HEK cells). There is then expression in these cells of the fusion protein GAL4-humanPPARgammaLBD which binds to the GAL4 binding sites of the reporter plasmid. In the presence of a PPARgamma-active ligand, the activated fusion protein GAL4-humanPPARgammaLBD induces expression of the luciferase reporter gene, which can be detected in the form of a chemiluminescence signal after addition of a luciferase substrate. As a difference from the stably transfected PPARalpha reporter cell line, in the cellular PPARgamma assay the two components (luciferase reporter plasmid and PPARgamma expression plasmid) are transiently transfected into HEK cells because stable and permanent expression of the PPARgamma fusion protein is cytotoxic.
The luciferase reporter plasmid pGL3basic-5xGAL4-TK is based on the vector pGL3basic from Promega. The reporter plasmid is prepared by cloning five binding sites of the yeast transcription factor GAL4 (each binding site with the sequence 5′-CTCGGAGGACAGTACTCCG-3′), together with a 160 bp-long thymidine kinase promoter section (Genbank Accession #AF027128) 5′-upstream into pGL3basic. 3′-downstream of the thymidine kinase promoter is the complete luciferase gene from Photinus pyralis (Genbank Accession #M15077) which is already a constituent of the plasmid pGL3basic used. The cloning and sequencing of the reporter plasmid pGL3basic-5xGAL4-TK took place in analogy to the description in Sambrook J. et. al. (Molecular cloning, Cold Spring Harbor Laboratory Press, 1989).
The PPARgamma expression plasmid pcDNA3-GAL4-humanPPARgammaLBD was prepared by first cloning the cDNA coding for amino acids 1-147 of the yeast transcription factor GAL4 (Genbank Accession #P04386) into the plasmid pcDNA3 (from Invitrogen) 3′-downstream of the cytomegalovirus promoter. Subsequently, the cDNA of the ligand-binding domain (LBD) of the human PPARgamma receptor (amino acids I152-Y475; Accession #g1480099) 3′-downstream of the GAL4 DNA binding domain. Cloning and sequencing of the PPARgamma expression plasmid pcDNA3-GAL4-humanPPARgammaLBD again took place in analogy to the description in Sambrook J. et. al. (Molecular cloning, Cold Spring Harbor Laboratory Press, 1989). Besides the luciferase reporter plasmid pGL3basic-5xGAL4-TK and the PPARgamma expression plasmid pcDNA3-GAL4-humanPPARgammaLBD, also used for the cellular PPARgamma assay are the reference plasmid pRL-CMV (from Promega) and the plasmid pBluescript SK(+) from Stratagene. All four plasmids were prepared using a plasmid preparation kit from Qiagen, which ensured a plasmid quality with a minimal endotoxin content, before transfection into HEK cells.
The activity of PPARgamma agonists is determined in a 4-day assay which is described below. Before the transfection, HEK cells are cultivated in DMEM (#41965-039, Invitrogen) which is mixed with the following additions: 10% FCS (#16000-044, Invitrogen), 1% penicillin-streptomycin solution (#15140-122, Invitrogen) and 2 mM L-glutamine (#25030-024, Invitrogen).
Firstly, solution A, a transfection mixture which contains all four plasmids previously described in addition to DMEM, is prepared. The following amounts are used to make up 3 ml of solution A for each 96 well microtiter plate for an assay: 2622 μl of antibiotic- and serum-free DMEM (#41965-039, Invitrogen), 100 μl of reference plasmid pRL-CMV (1 ng/μl), 100 μl of luciferase reporter plasmid pGL3basic-5xGAL4-TK (10 ng/μl), 100 μl of PPARgamma expression plasmid pcDNA3-GAL4-humanPPARgammaLBD (100 ng/μl) and 78 μl of plasmid pBluescript SK(+) (500 ng/μl). […]

SMILES	pEC50
CCOc1cc(C(F)(F)F)ccc1C(=O)N[C@H]1CCc2ccc(S(=O)(=O)Nc3nnc(C(C)C)s3)cc2C1 [Example 5, 2-Ethoxy-N-[(S)-7-(5-isopropyl-[1,3,4]thiadiazol-2-ylsulfamoyl)-1,2,3,4-tetrahydro-naphthalen-2-yl]-4-trifluoromethyl-benzamide]	7.00
CCOc1cc(C(F)(F)F)ccc1C(=O)NC1Cc2ccc(S(=O)(=O)Nc3nnc(C(C)C)s3)cc2C1 (single isomer, unassigned; enantiomer 2) [Example 1.2, 2-Ethoxy-N-[5-(5-isopropyl-[1,3,4]thiadiazol-2-ylsulfamoyl)-indan-2-yl]-4-trifluoromethyl-benzamide (Enantiomer 2)]	< 5.00
CCOc1cc(C(F)(F)F)ccc1C(=O)NC1Cc2ccc(S(=O)(=O)Nc3nnc(C(C)C)s3)cc2C1 (single isomer, unassigned; enantiomer 1) [Example 1.1, 2-Ethoxy-N-[5-(5-isopropyl-[1,3,4]thiadiazol-2-ylsulfamoyl)-indan-2-yl]-4-trifluoromethyl-benzamide (Enantiomer 1)]	7.66
CCOc1cc(C(F)(F)F)ccc1C(=O)NC1Cc2ccc(S(=O)(=O)Nc3nnc(C(C)C)s3)cc2C1 (racemic) [Example 1, 2-Ethoxy-N-[5-(5-isopropyl-[1,3,4]thiadiazol-2-ylsulfamoyl)-indan-2-yl]-4-trifluoromethyl-benzamide]	9.00
CCOc1cc(C(F)(F)F)sc1C(=O)NC1Cc2ccc(S(=O)(=O)Nc3nnc(C(C)C)s3)cc2C1 (stereo not drawn) [Example 11, 3-Ethoxy-5-trifluoromethyl-thiophene-2-carboxylic acid [5-(5-isopropyl-[1,3,4]thiadiazol-2-ylsulfamoyl)-indan-2-yl]-amide]	< 5.00
CCOc1cc(C(F)(F)F)ccc1C(=O)N[C@@H]1CCc2ccc(S(=O)(=O)Nc3nnc(C(C)C)s3)cc2C1 [Example 6, 2-Ethoxi-N-[(R)-7-(5-isopropyl-[1,3,4]thiadiazol-2-ylsulfamoyl)-1,2,3,4-tetrahydro-naphthalene-2-yl]-4-trifluoromethyl-benzamide]	6.70
